We go through 3 molecules from PubChem BioAssay AID1963955 (Xavier Lab, Infectious Disease and Microbiome Program, …, 2024).

Assay [1] can be described thus: autophagy inducers by MAP1LC3 foci formation, imaging, murine bone marrow-derived macrophages, green fluorescent protein-tagged MAP1LC3 (AID 1963955). To be noted: mouse BMDM GFP-LC3 puncta imaging, 4 h, stronger effect = higher value.
The subject of assay [2] is mouse BMDM GFP-LC3 puncta imaging, 4 h. The assay is described as above.

pEC50: −log10 of the molar value. The source made the active and inactive calls.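 How the source made its calls: active means statistically significant rise in LC3 puncta area per cell versus the same autophagy inducer given alone; inactive means the rest.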

As to `CS(C)=O`, the LC3 puncta area per cell in assay [1] (no co-treatment) was 7.38 um2/cell (inactive); in assay [1] (with HBSS) it was 9.2 um2/cell.
Broadly, the pEC50 is −log10 of the EC50, conventionally taken in molar units. `CCC(C)(C)C(=O)C(=O)N1CCCC[C@H]1C(=O)N[C@H](CCc1ccc(OC)cc1)C(=O)N1[C@@H]2CC[C@H]1CC(Nc1nc(NCCc3sc(N)nc3C)nc(N3CCn4ncnc4C3)n1)C2` (stereo not given in full): the pEC50 in assay [2] (no co-treatment, at 20 µM) is 4.35; in assay [2] (no co-treatment, at 40 µM), 4.35; in assay [2] (with HBSS, at 20 µM), 4.64; in assay [2] (with HBSS, at 40 µM) it was 4.64.
For the molecule `CCC(C)(C)C(=O)C(=O)N1CCCC[C@H]1C(=O)N[C@H](CCc1ccc(OC)cc1)C(=O)N1[C@@H]2CC[C@H]1CC(Nc1nc(NCCc3ccccc3)nc(N3CCn4ncnc4C3)n1)C2` (stereo not given in full), the LC3 puncta area per cell in assay [1] (at 20 µM, no co-treatment) was 5.15 um2/cell (inactive); in assay [1] (at 20 µM, with HBSS), 10.8 um2/cell (inactive); in assay [1] (at 40 µM, no co-treatment), 5.34 um2/cell (inactive); in assay [1] (at 40 µM, with HBSS), 11.1 um2/cell.
